In patent US9011853B2, “B7-H4 fusion proteins and methods of use thereof” (Amplimmune, Inc., priority 2009, dated 2015):

How the values were obtained:
DBA/1J mice [1] = experiment: Collagen-induced arthritis (CIA) prophylactic model, arthritis score; assay type: in vivo, mouse; details: 0.5 mg (20 mg/kg) IP from day of CII immunization, 2 times each week up to 6 weeks; days 33 and beyond; vs vehicle (FIG. 3)
Text: CIA is a well-characterized mouse model for human RA, in which injection of collagen II (CII) into DBA/1J mice induces swelling and progressive inflammation in joints resulting in arthritis. […] B7-H4-Ig treatment continued 2 times each week, up to 6 weeks. On day 21, mice were rechallenged with CII emulsified in IFA. FIG. 2 outlines a brief experimental design. Day 40 was the last B7-H4-Ig treatment.

DBA/1J mice [2] = experiment: CIA therapeutic model, arthritis score; assay type: in vivo, mouse; details: 300 μg IP 3 times a week for 4 weeks from CII rechallenge (day 21); days 38 and beyond; vs vehicle (FIG. 5)
Description: FIG. 4 outlines a brief experimental design of the CIA therapeutic study. DBA/1J mice were first immunized with chicken CII emulsified in CFA. Twenty one days later, the mice were rechallenged with CII emulsified in IFA and randomized into 2 groups. Group 1 (n=10) were IP injected with 300 μg of B7-H4-Ig, 3 times a week for 4 weeks. Group 2 (n=10) were injected with vehicle. Mouse paws/joints were monitored and scored 3 times a week.

B7-H4-Ig: B7-H4 extracellular domain fused to Ig Fc; bare label is the human protein in Example 3, murine protein in Examples 1, 2, 5, 7-11
overall arthritis scores (DBA/1J mice [1]): significantly lower than the scores for vehicle-injected CIA mice | overall arthritis scores (DBA/1J mice [2]): significantly lower than the ones of vehicle injected CIA mice
